# Measurements from ChEMBL document CHEMBL1201862, “PubChem BioAssay data set” (2004).
#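 Briefly, cells in 96-well plates were exposed to five compound concentrations for 48 h, and endpoints were estimated by linear interpolation. The concentration for 50% growth inhibition is given as GI50.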 Activity calls are given as the source filed them. Cut-off read from the data, not from the text of the source: active = GI50 up to about 1.1 µM and inactive = higher.
# What was measured:
# Test in all cases: NCI anticancer screen, dose series, 48 h
# 786-0 = system: 786-0
# A498 = system: A498
# A549 = system: A549
# ACHN = system: ACHN
# BT-549 = system: BT-549
# CAKI-1 = system: CAKI-1
# CCRF-CEM = system: CCRF-CEM
# COLO 205 = system: COLO 205
# DU-145 = system: DU-145
# EKVX = system: EKVX
# HCC 2998 = system: HCC 2998
# HCT-116 = system: HCT-116
# HCT-15 = system: HCT-15
# HL-60 = system: HL-60
# HOP-62 = system: HOP-62
# HOP-92 = system: HOP-92
# HT-29 = system: HT-29
# Hs-578T = system: Hs-578T
# IGROV-1 = system: IGROV-1
# K562 = system: K562
# KM12 = system: KM12
# LOX IMVI = system: LOX IMVI
# M14 = system: M14
# MCF7 = system: MCF7
# MDA-MB-231 = system: MDA-MB-231
# MDA-MB-435 = system: MDA-MB-435
# MDA-N = system: MDA-N
# MOLT-4 = system: MOLT-4
# Malme-3M = system: Malme-3M
# NCI-H226 = system: NCI-H226
# NCI-H23 = system: NCI-H23
# NCI-H460 = system: NCI-H460
# NCI-H522 = system: NCI-H522
# NCI/ADR-RES = system: NCI/ADR-RES
# OVCAR-3 = system: OVCAR-3
# OVCAR-4 = system: OVCAR-4
# OVCAR-5 = system: OVCAR-5
# OVCAR-8 = system: OVCAR-8
# PC-3 = system: PC-3
# RPMI-8226 = system: RPMI-8226
# RXF 393 = system: RXF 393
# SF-268 = system: SF-268
# SF-295 = system: SF-295
# SF-539 = system: SF-539
# SK-MEL-28 = system: SK-MEL-28
# SK-MEL-2 = system: SK-MEL-2
# SK-MEL-5 = system: SK-MEL-5
# SK-OV-3 = system: SK-OV-3
# SN12C = system: SN12C
# SNB-19 = system: SNB-19
# SNB-75 = system: SNB-75
# SR = system: SR
# SW-620 = system: SW-620
# T47D = system: T47D
# TK-10 = system: TK-10
# U-251 = system: U-251
# UACC-257 = system: UACC-257
# UACC-62 = system: UACC-62
# UO-31 = system: UO-31
smiles,measurement,setting,value
CCOC(=O)c1ccc(-c2cccs2)n1C,GI50,786-0,> 100 µM (inactive)
same,GI50,A498,> 100 µM (inactive)
same,GI50,A549,> 100 µM (inactive)
same,GI50,ACHN,> 100 µM (inactive)
same,GI50,BT-549,> 83 µM (inactive)
same,GI50,CAKI-1,> 100 µM (inactive)
same,GI50,CCRF-CEM,71.8 µM (inactive)
same,GI50,COLO 205,> 100 µM (inactive)
same,GI50,DU-145,> 100 µM (inactive)
same,GI50,EKVX,48.5 µM (inactive)
same,GI50,HCC 2998,> 100 µM (inactive)
same,GI50,HCT-116,> 95.1 µM (inactive)
same,GI50,HCT-15,51.5 µM
same,GI50,HL-60,> 69.5 µM (inactive)
same,GI50,HOP-62,> 55.5 µM (inactive)
same,GI50,HOP-92,> 43.1 µM (inactive)
same,GI50,HT-29,47.2 µM (inactive)
same,GI50,Hs-578T,43.4 µM (inactive)
same,GI50,IGROV-1,> 80.7 µM (inactive)
same,GI50,K562,60.5 µM (inactive)
same,GI50,KM12,> 100 µM (inactive)
same,GI50,LOX IMVI,> 77.8 µM (inactive)
same,GI50,M14,> 100 µM (inactive)
same,GI50,MCF7,> 96.4 µM (inactive)
same,GI50,MDA-MB-231,> 100 µM (inactive)
same,GI50,MDA-MB-435,> 92.5 µM (inactive)
same,GI50,MDA-N,> 96.2 µM (inactive)
same,GI50,MOLT-4,39.4 µM (inactive)
same,GI50,Malme-3M,> 67.1 µM (inactive)
same,GI50,NCI-H226,> 100 µM (inactive)
same,GI50,NCI-H23,> 86.7 µM (inactive)
same,GI50,NCI-H460,> 100 µM (inactive)
same,GI50,NCI-H522,51.6 µM (inactive)
same,GI50,NCI/ADR-RES,> 87.5 µM (inactive)
same,GI50,OVCAR-3,> 100 µM (inactive)
same,GI50,OVCAR-4,79.8 µM (inactive)
same,GI50,OVCAR-5,> 100 µM (inactive)
same,GI50,OVCAR-8,> 100 µM (inactive)
same,GI50,PC-3,> 100 µM (inactive)
same,GI50,RPMI-8226,84.5 µM (inactive)
same,GI50,RXF 393,> 66.5 µM (inactive)
same,GI50,SF-268,> 100 µM (inactive)
same,GI50,SF-295,> 95.3 µM (inactive)
same,GI50,SF-539,> 100 µM (inactive)
same,GI50,SK-MEL-28,> 100 µM (inactive)
same,GI50,SK-MEL-2,> 100 µM (inactive)
same,GI50,SK-MEL-5,33.7 µM (inactive)
same,GI50,SK-OV-3,> 87.3 µM (inactive)
same,GI50,SN12C,> 100 µM (inactive)
same,GI50,SNB-19,> 100 µM (inactive)
same,GI50,SNB-75,> 100 µM (inactive)
same,GI50,SR,> 64.9 µM (inactive)
same,GI50,SW-620,> 80.7 µM (inactive)
same,GI50,T47D,19 µM (inactive)
same,GI50,TK-10,> 100 µM (inactive)
same,GI50,U-251,> 100 µM (inactive)
same,GI50,UACC-257,> 79.1 µM (inactive)
same,GI50,UACC-62,58.5 µM (inactive)
same,GI50,UO-31,43.7 µM (inactive)
O=C(/C=C/c1ccco1)CC(=O)/C=C/c1ccco1,GI50,786-0,12.7 µM (inactive)
same,GI50,A498,20.9 µM (inactive)
same,GI50,A549,14.4 µM (inactive)
same,GI50,ACHN,14.8 µM (inactive)
same,GI50,BT-549,18.2 µM (inactive)
same,GI50,CAKI-1,14.7 µM (inactive)
same,GI50,CCRF-CEM,6.17 µM (inactive)
same,GI50,COLO 205,> 10 µM (inactive)
same,GI50,DU-145,> 10 µM (inactive)
same,GI50,EKVX,20.5 µM (inactive)
same,GI50,HCC 2998,12.8 µM (inactive)
same,GI50,HCT-116,11.4 µM (inactive)
same,GI50,HCT-15,12.5 µM
same,GI50,HL-60,5.55 µM (inactive)
same,GI50,HOP-62,11.7 µM (inactive)
same,GI50,HOP-92,28.8 µM (inactive)
same,GI50,HT-29,> 10 µM (inactive)
same,GI50,Hs-578T,16.4 µM (inactive)
same,GI50,IGROV-1,16.8 µM (inactive)
same,GI50,K562,9.89 µM (inactive)
same,GI50,KM12,28.8 µM (inactive)
same,GI50,LOX IMVI,4.99 µM (inactive)
same,GI50,M14,14.7 µM (inactive)
same,GI50,MCF7,8.32 µM (inactive)
same,GI50,MDA-MB-231,> 10 µM (inactive)
same,GI50,MDA-MB-435,10.1 µM (inactive)
same,GI50,MDA-N,8.04 µM (inactive)
same,GI50,MOLT-4,12 µM (inactive)
same,GI50,Malme-3M,13 µM (inactive)
same,GI50,NCI-H226,> 10 µM (inactive)
same,GI50,NCI-H23,12.2 µM (inactive)
same,GI50,NCI-H460,14.4 µM (inactive)
same,GI50,NCI-H522,7.31 µM (inactive)
same,GI50,NCI/ADR-RES,12.8 µM (inactive)
same,GI50,OVCAR-3,> 10 µM (inactive)
same,GI50,OVCAR-4,15.5 µM (inactive)
same,GI50,OVCAR-5,16.9 µM (inactive)
same,GI50,OVCAR-8,17.7 µM (inactive)
same,GI50,PC-3,> 10 µM (inactive)
same,GI50,RPMI-8226,8.38 µM (inactive)
same,GI50,RXF 393,4.58 µM (inactive)
same,GI50,SF-268,> 10 µM (inactive)
same,GI50,SF-295,> 10 µM (inactive)
same,GI50,SF-539,13.9 µM (inactive)
same,GI50,SK-MEL-28,12.2 µM (inactive)
same,GI50,SK-MEL-2,14.3 µM (inactive)
same,GI50,SK-MEL-5,12.3 µM (inactive)
same,GI50,SK-OV-3,> 10 µM (inactive)
same,GI50,SN12C,10.1 µM (inactive)
same,GI50,SNB-19,15.5 µM (inactive)
same,GI50,SNB-75,18 µM (inactive)
same,GI50,SR,4.66 µM (inactive)
same,GI50,SW-620,10.9 µM (inactive)
same,GI50,T47D,8.67 µM (inactive)
same,GI50,TK-10,26.3 µM (inactive)
same,GI50,U-251,13.7 µM (inactive)
same,GI50,UACC-257,37.8 µM (inactive)
same,GI50,UACC-62,13.5 µM (inactive)
same,GI50,UO-31,13.3 µM (inactive)
Cc1ccc([S@+]([O-])c2occc2C=O)cc1,GI50,786-0,3.95 µM (inactive)
same,GI50,A498,17.1 µM (inactive)
same,GI50,A549,19.6 µM (inactive)
same,GI50,ACHN,15.4 µM (inactive)
same,GI50,BT-549,12 µM (inactive)
same,GI50,CAKI-1,17.1 µM (inactive)
same,GI50,CCRF-CEM,1.64 µM (inactive)
same,GI50,COLO 205,14.9 µM (inactive)
same,GI50,DU-145,19 µM (inactive)
same,GI50,EKVX,19.8 µM (inactive)
same,GI50,HCC 2998,14.5 µM (inactive)
same,GI50,HCT-116,3.03 µM (inactive)
same,GI50,HCT-15,3.49 µM
same,GI50,HL-60,1.8 µM (inactive)
same,GI50,HOP-62,17.5 µM (inactive)
same,GI50,HOP-92,3.27 µM (inactive)
same,GI50,HT-29,7.38 µM (inactive)
same,GI50,Hs-578T,16.4 µM (inactive)
same,GI50,IGROV-1,11.7 µM (inactive)
same,GI50,K562,1.85 µM (inactive)
same,GI50,KM12,17.2 µM (inactive)
same,GI50,LOX IMVI,1.81 µM (inactive)
same,GI50,M14,6.9 µM (inactive)
same,GI50,MCF7,3.48 µM (inactive)
same,GI50,MDA-MB-231,8.65 µM (inactive)
same,GI50,MDA-MB-435,7.55 µM (inactive)
same,GI50,MDA-N,4.44 µM (inactive)
same,GI50,MOLT-4,1.79 µM (inactive)
same,GI50,Malme-3M,3.7 µM (inactive)
same,GI50,NCI-H226,19.4 µM (inactive)
same,GI50,NCI-H23,14.5 µM (inactive)
same,GI50,NCI-H460,9.91 µM (inactive)
same,GI50,NCI-H522,15.4 µM (inactive)
same,GI50,NCI/ADR-RES,11 µM (inactive)
same,GI50,OVCAR-3,2.81 µM (inactive)
same,GI50,OVCAR-4,9.98 µM (inactive)
same,GI50,OVCAR-5,19.2 µM (inactive)
same,GI50,OVCAR-8,9.93 µM (inactive)
same,GI50,PC-3,5.02 µM (inactive)
same,GI50,RPMI-8226,1.91 µM (inactive)
same,GI50,RXF 393,13.3 µM (inactive)
same,GI50,SF-268,5.38 µM (inactive)
same,GI50,SF-295,17.7 µM (inactive)
same,GI50,SF-539,11.4 µM (inactive)
same,GI50,SK-MEL-28,3.82 µM (inactive)
same,GI50,SK-MEL-2,15 µM (inactive)
same,GI50,SK-MEL-5,10.4 µM (inactive)
same,GI50,SK-OV-3,13.6 µM (inactive)
same,GI50,SN12C,7.26 µM (inactive)
same,GI50,SNB-19,5.07 µM (inactive)
same,GI50,SNB-75,12.1 µM (inactive)
same,GI50,SR,1.71 µM (inactive)
same,GI50,SW-620,1.93 µM (inactive)
same,GI50,T47D,2.43 µM (inactive)
same,GI50,TK-10,14.3 µM (inactive)
same,GI50,U-251,12.9 µM (inactive)
same,GI50,UACC-257,12.4 µM (inactive)
same,GI50,UACC-62,15.5 µM (inactive)
same,GI50,UO-31,11.1 µM (inactive)
